Measured values reported in patent US9695155B2, “Herbicidal substituted pyrimidinyloxy benzene compounds” (E. I. DU PONT DE NEMOURS AND COMPANY, priority 2013, dated 2017).

What was measured:
morningglory = test: Test A preemergence; assay type: in vivo, Ipomoea spp.
Outline: (§1)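 Pre- and postemergence greenhouse screen. Soil: loam + sand. Spray carrier: solvent mixture, non-phytotoxic, with surfactant. Post timing at 1–2 leaves, height 2–10 cm. Readout: visual injury on a 0–100 scale roughly 10 days after application, untreated plants as reference.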

corn = test: Test A preemergence; assay type: in vivo, Zea mays; conditions: Zea mays, pre-emergence, 240 h, 0 to 100 scale where 0 is no effect and 100 is complete control
Outline: as §1

barnyardgrass [1] = test: Test A postemergence; assay type: in vivo, Echinochloa crus-galli; conditions: Echinochloa crus-galli, post-emergence, 240 h, 0 to 100 scale where 0 is no effect and 100 is complete control
Outline: as §1

sedge, umbrella = test: Test B flooded paddy test; assay type: in vivo, Cyperus difformis; conditions: Cyperus difformis, Flood, 250 g ai/ha; 0 to 100 scale where 0 is no effect and 100 is complete control; read-out: Plant response rating, Sedge, Umbrella
Outline: (§2)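 Post-emergence paddy-water application at the 2-leaf stage, with 3 cm flood kept for the whole test. Response was judged visually relative to controls after 13 to 15 greenhouse days, 0 indicating no effect and 100 complete control.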

barnyardgrass [2] = test: Test B flooded paddy test; assay type: in vivo, Echinochloa crus-galli; conditions: Echinochloa crus-galli; Flood, 250 g ai/ha; 0 to 100 scale where 0 is no effect and 100 is complete control; read-out: Plant response rating, Barnyardgrass
Outline: as §2

Italian ryegrass = test: Test C postemergence; assay type: in vivo, Lolium multiflorum
Outline: (§3)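 Rated visually on 0–100 (100 = complete control) after 13–15 days under glass. Treatments went onto freshly seeded loam/sand soil or onto emerged plants at the 1- to 4-leaf stage, using a surfactant-containing solvent formulation.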

johnsongrass = test: Test C postemergence; assay type: in vivo, Sorghum halepense
Outline: as §3

yellow nutsedge = test: Test C postemergence; assay type: in vivo, Cyperus esculentus
Outline: as §3

pigweed = test: Test C postemergence; assay type: in vivo, Amaranthus retroflexus
Outline: as §3

barnyardgrass [3] = test: Test C postemergence; assay type: in vivo, Echinochloa crus-galli; conditions: Echinochloa crus-galli, post-emergence
Outline: as §3

waterhemp = test: Test C postemergence; assay type: in vivo, Amaranthus rudis
Outline: as §3

wild oat = test: Test C postemergence; assay type: in vivo, Avena fatua
Outline: as §3

velvetleaf = test: Test C postemergence; assay type: in vivo, Abutilon theophrasti
Outline: as §3

[4] = 31 g ai/ha, postemergence, visual rating, scale 0 to 100 (0 no effect, 100 complete control), 13 to 15 days

Structure (SMILES): Fc1cccc(Oc2ncc(Cl)cn2)c1-n1cc(Br)cn1 [Compound 178, 2-[2-(4-bromo-1H-pyrazol-1-yl)-3-fluorophenoxy]-5-chloropyrimidine]
- Morningglory plant response rating (0 to 100 scale) (morningglory; 125 g ai/ha): 10
- pest or weed control at 500 g/ha (morningglory; Ipomoea, pre-emergence, 240 h, 500 g ai/ha, 0 to 100 scale where 0 is no effect and 100 is complete control, read-out: Morningglory plant response rating): 90%
- Corn plant response rating (crop injury, 0 = no effect, 100 = complete kill) at 125 g/ha (corn; 125 g ai/ha): 0%
- plant injury at 500 g/ha (corn; 500 g ai/ha, read-out: Corn plant response rating): 30%
- pest or weed control at 125 g/ha (barnyardgrass [1]; 125 g ai/ha, read-out: Barnyardgrass plant response rating): 70%
- pest or weed control at 500 g/ha (barnyardgrass [1]; 500 g ai/ha, read-out: Plant response rating, Barnyardgrass): 100%
- pest or weed control at 250 g/ha (sedge, umbrella): 0%
- pest or weed control at 250 g/ha (barnyardgrass [2]): 0%
- Ryegrass, Italian plant response rating (Italian ryegrass; [4]): 0
- pest or weed control at 16 g/ha (Italian ryegrass; Lolium multiflorum, post-emergence, 16 g ai/ha, postemergence, 0 is no effect, 100 is complete control, read-out: Plant response rating (0 to 100), Ryegrass, Italian): 0%
- pest or weed control at 125 g/ha (Italian ryegrass; Lolium multiflorum, post-emergence, 125 g ai/ha, postemergence, visual rating, scale 0 to 100 (0 no effect, 100 complete control), read-out: Plant response rating, Ryegrass, Italian): 20%
- pest or weed control at 62 g/ha (Italian ryegrass; Lolium multiflorum, post-emergence, Postemergence, 62 g ai/ha, scale 0 to 100 (0 no effect, 100 complete control), read-out: Plant response rating, Ryegrass, Italian): 0%
- Johnsongrass plant response rating (johnsongrass; [4]): 5
- pest or weed control at 16 g/ha (johnsongrass; Sorghum halepense, post-emergence, 16 g ai/ha, postemergence, 0 is no effect, 100 is complete control, read-out: Plant response rating (0 to 100), Johnsongrass): 0%
- pest or weed control at 125 g/ha (johnsongrass; Sorghum halepense, post-emergence, 125 g ai/ha, postemergence, visual rating, scale 0 to 100 (0 no effect, 100 complete control), read-out: Plant response rating, Johnsongrass): 35%
- pest or weed control at 62 g/ha (johnsongrass; Sorghum halepense, post-emergence, Postemergence, 62 g ai/ha, scale 0 to 100 (0 no effect, 100 complete control), read-out: Plant response rating, Johnsongrass): 15%
- Nutsedge, Yellow plant response rating (yellow nutsedge; [4]): 5
- pest or weed control at 16 g/ha (yellow nutsedge; Cyperus, post-emergence, 16 g ai/ha, postemergence, 0 is no effect, 100 is complete control, read-out: Plant response rating (0 to 100), Nutsedge, Yellow): 5%
- pest or weed control at 125 g/ha (yellow nutsedge; Cyperus, post-emergence, 125 g ai/ha, postemergence, visual rating, scale 0 to 100 (0 no effect, 100 complete control), read-out: Plant response rating, Nutsedge, Yellow): 10%
- pest or weed control at 62 g/ha (yellow nutsedge; Cyperus, post-emergence, Postemergence, 62 g ai/ha, scale 0 to 100 (0 no effect, 100 complete control), read-out: Plant response rating, Nutsedge, Yellow): 5%
- Pigweed plant response rating (pigweed; [4]): 85
- pest or weed control at 16 g/ha (pigweed; Amaranthus retroflexus, post-emergence, 16 g ai/ha, postemergence, 0 is no effect, 100 is complete control, read-out: Plant response rating (0 to 100), Pigweed): 80%
- pest or weed control at 125 g/ha (pigweed; Amaranthus retroflexus, post-emergence, 125 g ai/ha, postemergence, visual rating, scale 0 to 100 (0 no effect, 100 complete control), read-out: Plant response rating, Pigweed): 98%
- pest or weed control at 62 g/ha (pigweed; Amaranthus retroflexus, post-emergence, Postemergence, 62 g ai/ha, scale 0 to 100 (0 no effect, 100 complete control), read-out: Plant response rating, Pigweed): 95%
- pest or weed control at 16 g/ha (barnyardgrass [3]; 16 g ai/ha, postemergence, 0 is no effect, 100 is complete control, read-out: Plant response rating (0 to 100), Barnyardgrass): 5%
- pest or weed control at 31 g/ha (barnyardgrass [3]; 31 g ai/ha, postemergence, visual rating, scale 0 to 100 (0 no effect, 100 complete control), 13 to 15 days, read-out: Barnyardgrass plant response rating): 5%
- pest or weed control at 125 g/ha (barnyardgrass [3]; 125 g ai/ha, postemergence, visual rating, scale 0 to 100 (0 no effect, 100 complete control), read-out: Plant response rating, Barnyardgrass): 10%
- pest or weed control at 62 g/ha (barnyardgrass [3]; Postemergence, 62 g ai/ha, scale 0 to 100 (0 no effect, 100 complete control), read-out: Plant response rating, Barnyardgrass): 5%
- Waterhemp plant response rating (waterhemp; [4]): 90
- pest or weed control at 16 g/ha (waterhemp; Amaranthus tuberculatus, post-emergence, 16 g ai/ha, postemergence, 0 is no effect, 100 is complete control, read-out: Plant response rating (0 to 100), Waterhemp): 80%
- pest or weed control at 125 g/ha (waterhemp; Amaranthus tuberculatus, post-emergence, 125 g ai/ha, postemergence, visual rating, scale 0 to 100 (0 no effect, 100 complete control), read-out: Plant response rating, Waterhemp): 100%
- pest or weed control at 62 g/ha (waterhemp; Amaranthus tuberculatus, post-emergence, Postemergence, 62 g ai/ha, scale 0 to 100 (0 no effect, 100 complete control), read-out: Plant response rating, Waterhemp): 90%
- Oat, Wild plant response rating (wild oat; [4]): 0
- pest or weed control at 16 g/ha (wild oat; Avena fatua, post-emergence, 16 g ai/ha, postemergence, 0 is no effect, 100 is complete control, read-out: Plant response rating (0 to 100), Oat, Wild): 0%
- pest or weed control at 125 g/ha (wild oat; Avena fatua, post-emergence, 125 g ai/ha, postemergence, visual rating, scale 0 to 100 (0 no effect, 100 complete control), read-out: Plant response rating, Oat, Wild): 30%
- pest or weed control at 62 g/ha (wild oat; Avena fatua, post-emergence, Postemergence, 62 g ai/ha, scale 0 to 100 (0 no effect, 100 complete control), read-out: Plant response rating, Oat, Wild): 10%
- Velvetleaf plant response rating (velvetleaf; [4]): 70
- pest or weed control at 16 g/ha (velvetleaf; Abutilon theophrasti, post-emergence, 16 g ai/ha, postemergence, 0 is no effect, 100 is complete control, read-out: Plant response rating (0 to 100), Velvetleaf): 50%
- pest or weed control at 125 g/ha (velvetleaf; Abutilon theophrasti, post-emergence, 125 g ai/ha, postemergence, visual rating, scale 0 to 100 (0 no effect, 100 complete control), read-out: Plant response rating, Velvetleaf): 100%
- pest or weed control at 62 g/ha (velvetleaf; Abutilon theophrasti, post-emergence, Postemergence, 62 g ai/ha, scale 0 to 100 (0 no effect, 100 complete control), read-out: Plant response rating, Velvetleaf): 85%
